Results taken from patent US9938263B2, “Gamma-secretase modulators” (The Regents of the University of California, A California …, priority 2013, dated 2018).
pIC50: −log10 of the molar value.

tested on: Aβ42; test: cell-based moderate throughput Aβ42 ELISA in SH-SY5Y-APP cells; details: Homo sapiens, SH-SY5Y, human SHSY5Y neuroblastoma cells stably overexpressing human APP, Aβ42 secreted into media
Procedure: A variety of cell lines normally produce and secrete various Aβ peptide alloforms into the media upon culture in supportive media. Examples of cell lines routinely used to assess the ability of a compound to inhibit formation specific Aβ peptide alloforms such as Aβ42, upon treatment of the cells with various concentrations of the compound for approximately 16 h followed by determining the concentration of the various Aβ peptide alloforms in the media both with and without treatment with the compound [(e.g., HEK-293, N2a delta E9/Swe, SHSY5Y and primary cerebral cortical neuronal cultures from embryonic day 18 (E18) embryos from timed pregnant WT Sprague-Dawley rats) (Netzer, W I et al., Gleevec inhibits β-amyloid production but not Notch cleavage. See e.g., Proc. Natl. Acad. Sci. U.S.A. 2003; 100:12444-12449.
The SH-SY5Y-APP human cell line was derived by transfecting a human neuroblastoma (SH-SY5Y) cell line with a plasmid expressing wild type human APP751 cDNA and selecting for stable expression of human APP and human Aβ. In each case, the levels of Aβ42 or Aβtotal or Aβ38 peptides secreted into the media of these cells were measured using either two-site monoclonal antibody (mAb)-based sandwich ELISA assays (described herein for Aβ42 and Aβtotal) or in the case of Aβ38 EC50's, using either the Meso Scale Aβ38, 40, 42 triplex kit along with the Meso Scale Sector Imager 6000 according to the manufacturer's protocols. This SH-SY5Y-APP human cell line was used for all cell-based Aβ peptide immunochemical assays.
SH-SY5Y-APP cells were plated at 75,000 cells/well in 96-well tissue culture plates. After 16-18 h, the culture medium was replaced with fresh medium containing either compound or vehicle. Replicates of 3 wells per test concentration were used, with 10 concentrations at ½ log step intervals. Vehicle (0.12% DMSO) is included as a control.
Compounds disclosed herein were synthesized and assayed for biological activity (EC50) in a cell-based moderate throughput Aβ42 ELISA that utilizes human SHSY5Y neuroblastoma cells stably overexpressing human […] wild-type, as known in the art.

| Structure (SMILES) | pIC50 |
| --- | --- |
| CCn1nc2c(c1Nc1nc(-c3ccc(-n4cnc(C)c4)c(OC)n3)cs1)CCCC2 [Cmpd 003077] | 7.25 |
| COc1nc(-c2csc(Nc3c4c(nn3C(C)(C)C)CCCC4)n2)cnc1-n1cnc(C)c1 [Cmpd 004019] | 7.15 |
| CCn1nc(C(F)(F)F)cc1Nc1nc(-c2ccc(-n3cnc(C)c3)c(OC)n2)cs1 [Cmpd 004102] | 7.24 |
| COc1nc(-c2csc(Nc3c4c(nn3C)CCC4)n2)ccc1-n1cnc(C)c1 [Cmpd 004346] | 7.11 |
| COc1nc(-c2csc(Nc3cc(C4(C)CC4)nn3C)n2)ccc1-n1cnc(C)c1 [Cmpd 13886] | 7.12 |
| COc1nc(-c2csc(Nc3cc(C4(C)CC4)nn3CCF)n2)ccc1-n1cnc(C)c1 [Cmpd 13922] | 7.17 |
| COc1nc(-c2csc(Nc3c4c(nn3CCF)CCC4)n2)ccc1-n1cnc(C)c1 [Cmpd 14106] | 7.19 |
| CCn1nc2c(c1Nc1nc(-c3cnc(-n4cnc(C)c4)c(OC)n3)cs1)CCCC2 [Cmpd 14257] | 7.05 |
| CCn1nc2c(c1Nc1nc(-c3ccc(-n4cnc(C)c4)c(OC)n3)c(CN(C)C)s1)CCCC2 [Cmpd 14508] | 7.07 |
| CCn1nc2c(c1Nc1nc(-c3ccc(-n4cnc(C)c4)c(OC)n3)c(CN3CCN(C)CC3)s1)CCCC2 [Cmpd 14548] | 7.01 |
| COc1nc(-c2csc(N3CC(N4C(=O)CCC4=O)Cn4nc5c(c43)CCCC5)n2)ccc1-n1cnc(C)c1 (stereo not drawn) [Cmpd 14780] | 7.17 |
| COc1nc(-c2csc(N3C/C(=N\O)Cn4nc5c(c43)CCC5)n2)ccc1-n1cnc(C)c1 [Cmpd 14839] | 7.24 |
| COc1nc(-c2csc(N3CC(N(C)C)Cn4nc5c(c43)CCCC5)n2)ccc1-n1cnc(C)c1 (stereo not drawn) [Cmpd 14885] | 7.23 |
| COc1nc(-c2csc(N3CCC(C(C)(C)O)n4nc5c(c43)CCCC5)n2)ccc1-n1cnc(C)c1 (stereo not drawn) [Cmpd 15002] | 7.19 |
| CO/N=C1\CN(c2nc(-c3ccc(-n4cnc(C)c4)c(OC)n3)cs2)c2c3c(nn2C1)CCCC3 [Cmpd 15188] | 7.12 |
| COc1nc(-c2nc(Nc3c4c(nn3CCF)CCCC4)sc2CN2CCC(F)(F)C2)ccc1-n1cnc(C)c1 [Cmpd 15473] | 7.00 |
| COc1nc(-c2nc(Nc3cc(C4(C)CC4)nn3CCF)cs2)ccc1-n1cnc(C)c1 [Cmpd 15746] | 7.25 |

More lines, now with the values ahead:

| pIC50 | Structure (SMILES) |
| --- | --- |
| 7.26 | COc1nc(-c2csc(N3C/C(=N\O)Cn4nc5c(c43)CCCC5)n2)ccc1-n1cnc(C)c1 [Cmpd 15004] |
| 7.28 | COc1nc(-c2csc(N3CC(O)Cn4nc5c(c43)CCC5)n2)ccc1-n1cnc(C)c1 (stereo not drawn) [15495 A] |
| 7.30 | COc1nc(-c2nc(Nc3c4c(nn3CCF)CCCC4)sc2CN2CCN(C)CC2)ccc1-n1cnc(C)c1 [Cmpd 15003] |
| 7.32 | COc1nc(-c2nc(Nc3c4c(nn3CCF)CCCC4)cs2)ccc1-n1cnc(C)c1 [Cmpd 15717] |
| 7.39 | COc1nc(-c2nc(N3CCCn4nc5c(c43)CCCC5)ns2)ccc1-n1cnc(C)c1 [Cmpd 16211] |
| 7.41 | COc1nc(-c2csc(Nc3c4c(nn3CC(C)(C)O)CCC4)n2)ccc1-n1cnc(C)c1 [Cmpd 14104] |
| 7.42 | CCn1nc2c(c1Nc1nc(-c3ccc(-n4cnc(C)c4)c(OC)n3)cs1)CCC2(C)C [Cmpd 004365] |
| 7.46 | COc1nc(-c2csc(Nc3c4c(nn3CC(F)(F)F)CCC4)n2)ccc1-n1cnc(C)c1 [Cmpd 004723] |
| 7.46 | CCn1nc2c(c1Nc1nc(-c3ccc(-n4cnc(C)c4)c(OC)n3)c(CO)s1)CCCC2 [Cmpd 13765] |
| 7.46 | C=C1CN(c2nc(-c3ccc(-n4cnc(C)c4)c(OC)n3)cs2)c2c3c(nn2C1)CCCC3 [Cmpd 14945] |
| 7.47 | COc1nc(-c2csc(N3CC(O)(CO)Cn4nc5c(c43)CCCC5)n2)ccc1-n1cnc(C)c1 (stereo not drawn) [Cmpd 15001] |
| 7.48 | CCn1nc2c(c1Nc1nc(-c3ccc(-n4cnc(C)c4)c(OC)n3)cs1)CCC2 [Cmpd 003783] |
| 7.52 | COc1nc(-c2nc(N3CC(C)Cn4nc(C5(C)CC5)cc43)cs2)ccc1-n1cnc(C)c1 (stereo not drawn) [Cmpd 15868] |
| 7.57 | COc1nc(-c2csc(Nc3cc(C4(C)CC4)nn3CC(F)(F)F)n2)ccc1-n1cnc(C)c1 [Cmpd 13921] |
| 7.62 | CCn1nc(C2(C)CC2)cc1Nc1nc(-c2ccc(-n3cnc(C)c3)c(OC)n2)cs1 [Cmpd 13563] |
| 7.66 | CCn1nc2c(c1Nc1csc(-c3ccc(-n4cnc(C)c4)c(OC)n3)n1)CCCC2 [Cmpd 14777] |
| 7.70 | COc1nc(-c2csc(Nc3c4c(nn3CC(C)(C)O)CCCC4)n2)ccc1-n1cnc(C)c1 [Cmpd 13674] |
| 7.72 | COc1nc(-c2csc(N3CCCn4nc5c(c43)CCC5)n2)ccc1-n1cnc(C)c1 [Cmpd 14035] |
| 7.72 | COc1nc(-c2csc(N3CC(N4CCCC4)Cn4nc5c(c43)CCCC5)n2)ccc1-n1cnc(C)c1 (stereo not drawn) [Cmpd 14946] |
| 7.74 | COc1nc(-c2nc(N3CCCn4nc(C5(C)CC5)cc43)cs2)ccc1-n1cnc(C)c1 [Cmpd 15666] |
| 7.77 | COc1nc(-c2csc(Nc3c4c(nn3CCF)CCCC4)n2)ccc1-n1cnc(C)c1 [Cmpd 13680] |
| 7.80 | COc1nc(-c2nc(N3CC(C)Cn4nc5c(c43)CCC5)cs2)ccc1-n1cnc(C)c1 (stereo not drawn) [Cmpd 15670] |
| 7.85 | CCn1nc(C2(C)CC2)cc1Nc1csc(-c2ccc(-n3cnc(C)c3)c(OC)n2)n1 [Cmpd 15587] |
| 7.92 | COc1nc(-c2nc(N3CC(C)Cn4nc5c(c43)CCCC5)cs2)ccc1-n1cnc(C)c1 (stereo not drawn) [Cmpd 15830] |
| 7.96 | COc1nc(-c2csc(Nc3cc(C4(C(F)(F)F)CC4)nn3C)n2)ccc1-n1cnc(C)c1 [Cmpd 13887] |
| 8.00 | COc1nc(-c2csc(N3CC(F)Cn4nc5c(c43)CCCC5)n2)ccc1-n1cnc(C)c1 (stereo not drawn) [Cmpd 14676] |
| 8.15 | COc1nc(-c2nc(N3CCCn4nc5c(c43)CCCC5)cs2)ccc1-n1cnc(C)c1 [Cmpd 15635] |
| 8.22 | COc1nc(-c2csc(N3CCCn4nc5c(c43)CCCC5)n2)ccc1-n1cnc(C)c1 [Cmpd 13636] |
| 8.30 | COc1nc(-c2nc(N3CCCn4nc5c(c43)CCC5)cs2)ccc1-n1cnc(C)c1 [Cmpd 15669] |

same assay, conditions: human SHSY5Y neuroblastoma cells stably overexpressing human APP, Aβ42 secreted into media

| pIC50 | Structure (SMILES) |
| --- | --- |
| 8.30 | COc1nc(-c2csc(N3CC(O)Cn4nc5c(c43)CCCC5)n2)ccc1-n1cnc(C)c1 (stereo not drawn) [14789 A] |
| 7.52 | COc1nc(-c2csc(N3CC(O)Cn4nc5c(c43)CCCC5)n2)ccc1-n1cnc(C)c1 (stereo not drawn) [14789 B] |
| 7.48 | COc1nc(-c2csc(N3CC(O)Cn4nc5c(c43)CCC5)n2)ccc1-n1cnc(C)c1 (stereo not drawn) [15496 B] |
| 7.36 | COc1nc(-c2csc(N3CC(O)Cn4nc5c(c43)CCC5)n2)ccc1-n1cnc(C)c1 (stereo not drawn) [Cmpd 14200] |
| 7.77 | COc1nc(-c2csc(N3CC(O)Cn4nc5c(c43)CCCC5)n2)ccc1-n1cnc(C)c1 (stereo not drawn) [Cmpd 14507] |
